In PubChem BioAssay (NCI):
“And” between values parts separate entries of the source, which are not always exact repeats. Equal values may be shown once.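 Test compounds were applied to cells in 96-well plates for 48 hours at 5 doses. GI50 = concentration required for 50% inhibition of growth. Definition used: TGI = concentration required for complete inhibition of growth.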

Tests used:
Experiment in all cases: NCI tumour cell line growth inhibition, 48 h
ACHN renal = test system: ACHN renal
SF-539 CNS = test system: SF-539 CNS
OVCAR-4 ovarian = test system: OVCAR-4 ovarian
UACC-62 melanoma = test system: UACC-62 melanoma
IGROV1 ovarian = test system: IGROV1 ovarian
NCI-H23 lung = test system: NCI-H23 lung
RXF 393 renal = test system: RXF 393 renal
SK-MEL-28 melanoma = test system: SK-MEL-28 melanoma
T-47D breast = test system: T-47D breast
DU-145 prostate = test system: DU-145 prostate

Row | Structure (SMILES) | TGI (ACHN renal) | GI50 (SF-539 CNS) | TGI (SF-539 CNS) [µM] | TGI (OVCAR-4 ovarian) | TGI (UACC-62 melanoma) | TGI (IGROV1 ovarian) | TGI (NCI-H23 lung) | TGI (RXF 393 renal) | TGI (SK-MEL-28 melanoma) [µM] | GI50 (IGROV1 ovarian) | GI50 (NCI-H23 lung) | GI50 (RXF 393 renal) | TGI (T-47D breast) | TGI (DU-145 prostate) | GI50 (ACHN renal) [µM] | GI50 (OVCAR-4 ovarian) [µM] | GI50 (UACC-62 melanoma) [µM] | GI50 (SK-MEL-28 melanoma) [µM] | GI50 (DU-145 prostate) [µM] | GI50 (T-47D breast) [µM]
1 | O=c1cccccc1[O-].O=c1cccccc1[O-].O=c1cccccc1[O-].[Sm+3] | > 100 µM | 29.1 µM | > 100 | > 100 µM | > 100 µM | > 100 µM | 71.5 µM | 53.6 µM |  |  |  |  |  |  |  |  |  |  |  | 
2 | O=C(CC1=Nc2nnc(-c3nnc4n3C(=O)C(CC(=O)C3CC3)=N4)n2C1=O)C1CC1 | > 100 µM |  | > 100 | > 100 µM | > 100 µM | > 100 µM | > 100 µM | > 100 µM | > 100 |  |  |  |  |  |  |  |  |  |  | 
3 | CC1CC(C)C(C(O)CC2CC(=O)N(c3ccccc3)C(=O)C2)C(O)C1 (centres undefined) | > 100 µM |  | > 100 | > 100 µM | > 100 µM | > 100 µM | > 100 µM | > 100 µM | > 100 |  |  |  |  |  |  |  |  |  |  | 
4 | CC(=O)OCC1OC(n2c(=S)n(-c3ccccc3)c(=O)c3cc(Br)cc(Br)c32)C(OC(C)=O)C(OC(C)=O)C1OC(C)=O (centres undefined) | > 100 µM | 43.9 µM and > 100 µM | > 100 |  | > 100 µM | > 100 µM | 92.1 µM and > 100 µM | 76.3 µM and > 100 µM | > 100 | 35.8 µM and > 100 µM | 19.1 µM and 72.3 µM | 19.4 µM and 64.2 µM |  |  |  |  |  |  |  | 
5 | CCOc1ccccc1NC(=O)C1=C(C)NC(C)=C(C(=O)Nc2ccccc2OCC)C1c1ccc([N+](=O)[O-])cc1 | > 100 µM |  | > 100 | > 100 µM | > 100 µM | > 100 µM | > 100 µM | > 100 µM | > 100 |  |  |  |  |  |  |  |  |  |  | 
6 | O=C(O)Cn1ccc(=O)c2cc([N+](=O)[O-])ccc21 | > 100 µM |  | > 100 |  | > 100 µM | > 100 µM | > 100 µM |  | > 100 |  |  |  | > 100 µM | > 100 µM |  |  |  |  |  | 
7 | O=C(/C=C(\[O-])c1ccccc1)CCCCCCC(=O)/C=C(\[O-])c1ccccc1.O=C(/C=C(\[O-])c1ccccc1)CCCCCCC(=O)/C=C(\[O-])c1ccccc1.O=C(/C=C(\[O-])c1ccccc1)CCCCCCC(=O)/C=C(\[O-])c1ccccc1.[Nd+3].[Nd+3] | > 50 µM | > 50 µM | > 50 | > 50 µM | > 50 µM | > 50 µM | > 50 µM |  | > 50 | > 50 µM | > 50 µM |  |  |  | > 50 | > 50 | > 50 | > 50 |  | 
8 | OCC#Cc1ccccc1C#Cc1ccc(C#Cc2ccccc2)cc1 | 37 µM | 21.4 µM | 45.6 | > 100 µM | 36.1 µM | > 100 µM | 37 µM | 54.3 µM | > 100 | 28.4 µM | 18.2 µM | 26.2 µM |  | 34.4 µM | 18.9 | 20.4 | 19.9 | 38.3 | 16.7 | 
9 | COc1cc(/C=C2\C(=O)N(C)c3ccccc32)cc(OC)c1OC | 62.8 µM | 19.7 µM | > 100 | > 100 µM | 32.1 µM | 53.4 µM | 73.1 µM | 5.75 µM | 44.4 | 7.52 µM | 21.2 µM | 0.206 µM | > 100 µM |  | 14.7 | 18.6 | 12 | 16 |  | 58
10 | C=C(Cl)[C@@](Cl)(CBr)CC[C@@H](Br)C(C)(C)Cl | 0.562 µM and 0.47 µM | 0.0282 µM | 0.325 | 7.36 µM and 3.15 µM | 24.5 µM and 3.84 µM | 32.2 µM and 32.6 µM | 30.2 µM and 29.1 µM | 2.37 µM and 0.488 µM |  | 14.7 µM | 13.4 µM | 0.346 µM | 2.98 µM and 0.797 µM | 1.18 µM and 1.82 µM | 0.184 | 2.29 | 4.53 |  | 0.213 | 0.775
11 | Clc1ccc2c(NCCCN3CCN(c4nc(N5CCOCC5)nc5ccccc45)CC3)ccnc2c1 |  | 1.68 µM | 3.14 | 4.64 µM | 3.36 µM |  |  | 3.1 µM | 3.37 |  |  | 1.65 µM | 5.09 µM |  |  | 1.9 | 1.9 | 1.88 |  | 2.32
12 | N#CC(NC(=O)CCl)=C(Cl)Cl | 2.51 µM | 1.84 µM | 3.53 | 3.6 µM | 2.69 µM | 2.92 µM | 3.56 µM | 2.64 µM | 3.03 | 1.18 µM | 1.7 µM | 1.27 µM |  | 4.02 µM | 1.22 | 1.76 | 1.34 | 1.56 | 1.69 | 
13 | Nc1nc(=S)[nH]c(C(=O)Nc2nccs2)c1-c1ccccc1 | > 100 µM |  | > 100 | > 100 µM | > 100 µM | > 100 µM | > 100 µM | > 100 µM | > 100 |  |  |  |  |  |  |  |  |  |  | 
14 | C#CC#CC#CC#CC#CC#CC#CC#CC[C@@H]1OC[C@@H](COC(=O)O[C@@H](C(=O)O[C@H]2C[C@@]3(O)[C@@H](OC(=O)c4ccccc4)[C@@H]4[C@]5(OC(C)=O)CO[C@@H]5C[C@H](O)[C@@]4(C)C(=O)[C@H](OC(C)=O)C(=C2C)C3(C)C)[C@@H](NC(=O)c2ccccc2)c2ccccc2)O1 | > 33.3 µM | 0.248 µM | 1.99 | > 33.3 µM | > 33.3 µM | > 33.3 µM | > 33.3 µM | 2.39 µM |  | 0.404 µM | 1.04 µM | 0.471 µM | > 33.3 µM | > 33.3 µM | 2.02 | > 8.99 | 0.815 |  | 0.502 | 0.335
15 | CN(C)c1ccc(C2CC(C)(O)Oc3cc4c(cc32)OCO4)cc1 (centres undefined) | > 100 µM |  | > 100 |  | > 100 µM | > 100 µM | > 100 µM | > 100 µM | > 100 |  |  |  | > 100 µM | > 100 µM |  |  |  |  |  | 
16 | COCC1N=C(c2cc(OC)c(OC)c(OC)c2-c2cc3c(cc2[C@H](C)O)OCO3)O[C@H]1c1ccccc1 (some centres undefined) | > 100 µM |  | > 100 | > 100 µM | > 100 µM | > 100 µM | > 100 µM |  | > 100 |  |  |  |  |  |  |  |  |  |  | 
17 | COc1ccc(C(=O)O/N=C2/CCCCC2CN(C)C)cc1 (centres undefined) | > 100 µM |  | > 100 | > 100 µM | > 100 µM | > 100 µM | > 100 µM | > 100 µM | > 100 |  |  |  |  |  |  |  |  |  |  | 
